These compounds were tested against T1, Recombinant HCV polymerase (Hepatitis C virus genotype 1b, UniProt P26663) (assay: HCV Polymerase Inhibition Assay). Conditions: primer/template-directed transcription, 30 minutes at 30° C.; category symbol.
T1 construct: 2.5 pmoles (0.15 μg) HCV polymerase protein
Assay type: biochemical
Method in brief: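 Recombinant genotype 1b polymerase (2.5 pmol) extended biotin-dG12 on poly(rC)300 with 1 μM GTP plus α-32P-GTP, pH 7.2, 30 min at 30 °C, 1% DMSO final; DE-filter-bound product counted. IC50 fitted from triplicate cpm, refitted with enzyme-concentration (30 nM) tight-binding equation when below 200 nM.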

T1 sequence (P26663 2420-3010): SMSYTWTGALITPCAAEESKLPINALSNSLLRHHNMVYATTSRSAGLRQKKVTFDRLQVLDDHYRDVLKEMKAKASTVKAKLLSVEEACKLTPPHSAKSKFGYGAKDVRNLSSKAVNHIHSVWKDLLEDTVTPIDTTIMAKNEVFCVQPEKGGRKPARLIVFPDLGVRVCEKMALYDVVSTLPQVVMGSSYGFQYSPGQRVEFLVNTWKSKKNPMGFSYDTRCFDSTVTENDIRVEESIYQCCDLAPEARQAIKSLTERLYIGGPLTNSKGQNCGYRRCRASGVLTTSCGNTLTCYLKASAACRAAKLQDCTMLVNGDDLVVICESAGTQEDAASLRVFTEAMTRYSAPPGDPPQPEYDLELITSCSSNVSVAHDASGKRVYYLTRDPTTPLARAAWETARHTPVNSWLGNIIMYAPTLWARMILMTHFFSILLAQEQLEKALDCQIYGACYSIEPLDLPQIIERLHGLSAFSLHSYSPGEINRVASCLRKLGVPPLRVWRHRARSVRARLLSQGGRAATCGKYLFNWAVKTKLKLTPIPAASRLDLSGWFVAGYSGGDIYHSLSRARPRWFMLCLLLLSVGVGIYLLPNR

First: COc1ccc(CCC2(C3CCCC3)CC3=C(CCCO3)C(=O)O2)c(OC)c1 (stereo not drawn) [Example 103, 7-Cyclopentyl-7-[2-(2,4-dimethoxyphenyl)ethyl]-3,4,7,8-tetrahydro-2H,5H-pyrano[4,3-b]pyran-5-one]
Second: COc1cc(OC)c(CCC2(C3CCCC3)CC(O)=C(SC3=NCCCN3)C(=O)O2)cc1Cl (stereo not drawn) [Example 110, 6-[2-(5-Chloro-2,4-dimethoxyphenyl)ethyl]-6-cyclopentyl-4-hydroxy-3-(1,4,5,6-tetrahydropyrimidin-2-ylthio)-5,6-dihydro-2H-pyran-2-one]
The IC50 of the first is higher: over 50 µM for the first, under 1 µM for the second.

Compared with `C=CCOCCC1(C2CCCC2)CC(O)=C(Sc2nc3nc(C)cc(C)n3n2)C(=O)O1` (stereo not drawn) [Example 104, 6-(2-Allyloxy-ethyl)-6-cyclopentyl-3-(5,7-dimethyl-[1,2,4]triazolo[1,5-a]pyrimidin-2-ylsulfanyl)-4-hydroxy-5,6-dihydro-pyran-2-one], `Cc1cc(C)n2nc(SC3=C(O)CC(CCc4ccc(OCc5ccccc5)cc4)(C4CCCC4)OC3=O)nc2n1` (stereo not drawn) [Example 122, 6-{2-[4-(Benzyloxy)phenyl]ethyl}-6-cyclopentyl-3-[(5,7-dimethyl[1,2,4]triazolo[1,5-a]pyrimidin-2-yl)thio]-4-hydroxy-5,6-dihydro-2H-pyran-2-one] is lower in IC50: 10 to 50 µM for the first, under 1 µM for the second. The second is the more potent here.

`COc1cc(OC)c(CCC2(C3CCCC3)CC(O)=C(Sc3nc(O)c4cc[nH]c4n3)C(=O)O2)cc1Cl` (stereo not drawn) [Example 105, 6-[2-(5-Chloro-2,4-dimethoxyphenyl)ethyl]-6-cyclopentyl-4-hydroxy-3-[(4-hydroxy-7H-pyrrolo[2,3-d]pyrimidin-2-yl)thio]-5,6-dihydro-2H-pyran-2-one] and `COc1cc(OC)c(CCC2(C3CCCC3)CC(O)=C(Sc3cnccn3)C(=O)O2)cc1Cl` (stereo not drawn) [Example 108, 6-[2-(5-Chloro-2,4-dimethoxyphenyl)ethyl]-6-cyclopentyl-4-hydroxy-3-(pyrazin-2-ylthio)-5,6-dihydro-2H-pyran-2-one] cannot be ordered by IC50: under 1 µM for the first, under 1 µM for the second.

`CCn1nnnc1SC1=C(O)CC(CCc2cc(Cl)c(OC)cc2OC)(C2CCCC2)OC1=O` (stereo not drawn) [Example 106, 6-[2-(5-Chloro-2,4-dimethoxyphenyl)ethyl]-6-cyclopentyl-3-[(1-ethyl-1H-tetraazol-5-yl)thio]-4-hydroxy-5,6-dihydro-2H-pyran-2-one] and `COc1cc(OC)c(CCC2(C3CCCC3)CC(O)=C(Sc3nnnn3CCN(C)C)C(=O)O2)cc1Cl` (stereo not drawn) [Example 107, 6-[2-(5-Chloro-2,4-dimethoxyphenyl)ethyl]-6-cyclopentyl-3-({1-[2-(dimethylamino)ethyl]-1H-tetraazol-5-yl}thio)-4-hydroxy-5,6-dihydro-2H-pyran-2-one] cannot be ordered by IC50: under 1 µM for the first, under 1 µM for the second.

`COc1cc(OC)c(CCC2(C3CCCC3)CC(O)=C(Sc3nccs3)C(=O)O2)cc1Cl` (stereo not drawn) [Example 109, 6-[2-(5-Chloro-2,4-dimethoxyphenyl)ethyl]-6-cyclopentyl-4-hydroxy-3-(1,3-thiazol-2-ylthio)-5,6-dihydro-2H-pyran-2-one] and `COc1ccc(CCC2(C3CCCC3)CC(O)=C(Sc3nnc(C)s3)C(=O)O2)cc1Cl` (stereo not drawn) [Example 125, 6-[2-(3-Chloro-4-methoxy-phenyl)-ethyl]-6-cyclopentyl-4-hydroxy-3-(5-methyl-[1,3,4]thiadiazol-2-ylsulfanyl)-5,6-dihydro-pyran-2-one] cannot be ordered by IC50: under 1 µM for the first, under 1 µM for the second.

Compared with `COc1ccc(CCC2(C3CCCC3)CC(O)=C(Sc3n[nH]c(-c4ccncc4)n3)C(=O)O2)cc1` (stereo not drawn) [Example 111, 6-Cyclopentyl-4-hydroxy-6-[2-(4-methoxyphenyl)ethyl]-3-[(5-pyridin-4-yl-1H-1,2,4-triazol-3-yl)thio]-5,6-dihydro-2H-pyran-2-one], `COc1ccc(CCC2(C3CCCC3)CC(O)=C(Sc3nc(N)n[nH]3)C(=O)O2)cc1` (stereo not drawn) [Example 115, 3-[(3-Amino-1H-1,2,4-triazol-5-yl)thio]-6-cyclopentyl-4-hydroxy-6-[2-(4-methoxyphenyl)ethyl]-5,6-dihydro-2H-pyran-2-one] is higher in IC50: under 1 µM for the first, 1 to 10 µM for the second. The first is the more potent here.

First: COc1ccc(CCC2(C3CCCC3)CC(O)=C(Sc3nc(C)c(CC(=O)O)s3)C(=O)O2)cc1 (stereo not drawn) [Example 112, [2-({6-Cyclopentyl-4-hydroxy-6-[2-(4-methoxyphenyl)ethyl]-2-oxo-5,6-dihydro-2H-pyran-3-yl}thio)-4-methyl-1,3-thiazol-5-yl]acetic acid]
Second: CCOC(=O)c1c[nH]c(SC2=C(O)CC(CCc3ccc(OC)cc3)(C3CCCC3)OC2=O)n1 (stereo not drawn) [Example 119, Ethyl 2-({6-cyclopentyl-4-hydroxy-6-[2-(4-methoxyphenyl)ethyl]-2-oxo-5,6-dihydro-2H-pyran-3-yl}thio)-1H-imidazole-4-carboxylate]
The IC50 of the first is lower: under 1 µM for the first, 1 to 10 µM for the second.

`COc1ccc(CCC2(C3CCCC3)CC(O)=C(Sc3nc(O)c4cc[nH]c4n3)C(=O)O2)cc1` (stereo not drawn) [Example 113, 6-Cyclopentyl-4-hydroxy-3-[(4-hydroxy-7H-pyrrolo[2,3-d]pyrimidin-2-yl)thio]-6-[2-(4-methoxyphenyl)ethyl]-5,6-dihydro-2H-pyran-2-one] and `O=C1OC(CCc2ccc(OCc3ccccc3)cc2)(C2CCCC2)CC(O)=C1Sc1nc(O)c2cc[nH]c2n1` (stereo not drawn) [Example 123, 6-{2-[4-(Benzyloxy)phenyl]ethyl}-6-cyclopentyl-4-hydroxy-3-[(4-hydroxy-7H-pyrrolo[2,3-d]pyrimidin-2-yl)thio]-5,6-dihydro-2H-pyran-2-one] cannot be ordered by IC50: under 1 µM for the first, under 1 µM for the second.

`COc1ccc(CCC2(C3CCCC3)CC(O)=C(Sc3nnnn3-c3ccc(O)cc3)C(=O)O2)cc1` (stereo not drawn) [Example 114, 6-Cyclopentyl-4-hydroxy-3-([1-(4-hydroxyphenyl)-1H-tetraazol-5-yl]thio)-6-[2-(4-methoxyphenyl)ethyl]-5,6-dihydro-2H-pyran-2-one] and `CCn1nnnc1SC1=C(O)CC(CCc2ccc(OC)cc2)(C2CCCC2)OC1=O` (stereo not drawn) [Example 121, 6-Cyclopentyl-3-[(1-ethyl-1H-tetraazol-5-yl)thio]-4-hydroxy-6-[2-(4-methoxyphenyl)ethyl]-5,6-dihydro-2H-pyran-2-one] cannot be ordered by IC50: under 1 µM for the first, under 1 µM for the second.

`COc1ccc(CCC2(C3CCCC3)CC(O)=C(Sc3nnnn3CCN(C)C)C(=O)O2)cc1` (stereo not drawn) [Example 116, 6-Cyclopentyl-3-({1-[2-(dimethylamino)ethyl]-1H-tetraazol-5-yl}thio)-4-hydroxy-6-[2-(4-methoxyphenyl)ethyl]-5,6-dihydro-2H-pyran-2-one] and `COc1ccc(CCC2(C3CCCC3)CC(O)=C(Sc3nnc(O)n3C)C(=O)O2)cc1` (stereo not drawn) [Example 117, 6-Cyclopentyl-4-hydroxy-3-[(5-hydroxy-4-methyl-4H-1,2,4-triazol-3-yl)thio]-6-[2-(4-methoxyphenyl)ethyl]-5,6-dihydro-2H-pyran-2-one] fall in the same range of IC50: 1 to 10 µM for the first, 1 to 10 µM for the second.

`COc1ccc(CCC2(C3CCCC3)CC(O)=C(Sc3nc4nc[nH]c4c(=O)[nH]3)C(=O)O2)cc1` (stereo not drawn) [Example 118, 2-((6-Cyclopentyl-4-hydroxy-6-[2-(4-methoxyphenyl)ethyl]-2-oxo-5,6-dihydro-2H-pyran-3-yl}thio)-1,7-dihydro-6H-purin-6-one] and `COc1ccc(CCC2(C3CCCC3)CC(O)=C(Sc3nc(N)c4cn[nH]c4n3)C(=O)O2)cc1` (stereo not drawn) [Example 120, 3-[(4-Amino-1H-pyrazolo[3,4-d]pyrimidin-6-yl)thio]-6-cyclopentyl-4-hydroxy-6-[2-(4-methoxyphenyl)ethyl]-5,6-dihydro-2H-pyran-2-one] cannot be ordered by IC50: under 1 µM for the first, under 1 µM for the second.

`COc1ccc(CCC2(C3CCCC3)CC(O)=C(Sc3nc[nH]n3)C(=O)O2)cc1Cl` (stereo not drawn) [Example 124, 6-[2-(3-Chloro-4-methoxy-phenyl)-ethyl]-6-cyclopentyl-4-hydroxy-3-(1 H[1,2,4]triazol-3-ylsulfanyl)-5,6-dihydro-pyran-2-one] and `COc1ccc(CCC2(C3CCCC3)CC(O)=C(Sc3nc4ccccc4[nH]3)C(=O)O2)cc1Cl` (stereo not drawn) [Example 128, 3-(1H-Benzoimidazol-2-ylsulfanyl)-6-[2-(3-chloro-4-methoxy-phenyl)-ethyl]-6-cyclopentyl-4-hydroxy-5,6-dihydro-pyran-2-one] cannot be ordered by IC50: under 1 µM for the first, under 1 µM for the second.

`COc1ccc(CCC2(C3CCCC3)CC(O)=C(Sc3ccc(O)cc3)C(=O)O2)cc1Cl` (stereo not drawn) [Example 126, 6-[2-(3-Chloro-4-methoxy-phenyl)-ethyl]-6-cyclopentyl-4-hydroxy-3-(4-hydroxy-phenylsulfanyl)-5,6-dihydro-pyran-2-one] and `COc1ccc(CCC2(C3CCCC3)CC(O)=C(Sc3nc4ccccc4o3)C(=O)O2)cc1Cl` (stereo not drawn) [Example 127, 3-(Benzooxazol-2-ylsulfanyl)-6-[2-(3-chloro-4-methoxy-phenyl)-ethyl]-6-cyclopentyl-4-hydroxy-5,6-dihydro-pyran-2-one] cannot be ordered by IC50: under 1 µM for the first, under 1 µM for the second.

`Cc1cc(SC2=C(O)CC(CCc3ccc(O)cc3)(C3CCCC3)OC2=O)c(C(C)(C)C)cc1CO` (stereo not drawn) [Example 133, 3-(2-tert-butyl-4-hydroxymethyl-5-methyl-phenylsulfanyl)-6-cyclopentyl-4-hydroxy-6-[2-(4-hydroxy-phenyl)-ethyl]-5,6-dihydro-pyran-2-one] and `Cc1cc(SC2=C(O)CC(CCc3ccc(O)cc3)(C3CCCC3)OC2=O)c(C(C)(C)C)cc1N` (stereo not drawn) [Example 136, 3-(4-Amino-2-tert-butyl-5-methyl-phenylsulfanyl)-6-cyclopentyl-4-hydroxy-6-[2-(4-hydroxy-phenyl)-ethyl]-5,6-dihydro-pyran-2-one] cannot be ordered by IC50: under 1 µM for the first, under 1 µM for the second.

First: Cc1cc(SC2=C(O)CC(CCc3ccco3)(C(C)C)OC2=O)c(C(C)(C)C)cc1CO (stereo not drawn) [Example 134]
Second: Cc1cc(SC2=C(O)CC(CCc3ccc(O)cc3)(C3CCCCC3)OC2=O)c(C(C)(C)C)cc1OS(=O)(=O)c1ccccc1 (stereo not drawn) [Example 135, Benzenesulfonic acid 5-tert-butyl-4-{6-cyclohexyl-4-hydroxy-6-[2-(4-hydroxy-phenyl)-ethyl]-2-oxo-5,6-dihydro-2H-pyran-3-ylsulfanyl}-2-methyl-phenyl ester]
The IC50 of the first is lower: 1 to 10 µM for the first, 10 to 50 µM for the second.
